One experiment addresses human CSNK1A1 (Homo sapiens (Human), UniProt P48729). Briefly: CSNK1A1 Assay 2 (ADP-Glo, 1 μM ATP). The class given is biochemical. To be noted: median, Table 2, read-out: CSNK1A1 Assay 2 IC50 [mol/l] (median). Put shortly:
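GST-tagged full-length human CSNK1A1 from insect cells, preincubated 15 min with compound, then reacted 30 min at 22° C with 1 μM ATP and 30 μM biotinylated peptide substrate in pH 7.5 HEPES buffer. ADP measured by ADP-Glo luminescence; normalised to no-inhibitor (0%) and no-enzyme (100%) controls.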
A general note: ADP-Glo first removes unused ATP, then detects ADP through luciferase.

For experiment [1], the target named is wild-type Epidermal Growth Factor Receptor (EGFR) (Homo sapiens (Human), UniProt P00533). Briefly: WT-EGFR kinase assay (TR-FRET, 2 mM ATP). The class given is biochemical. To be noted: median or individual measurements, Table 3, read-out: EGFR Wildtyp-2mM ATP IC50 [mol/l] (median). Put shortly:
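GST-fused human EGFR (R669–A1210, Sf9-expressed) pre-incubated 15 min with compound, then reacted 30 min at 22° C with 2 mM ATP and 1 μM biotinylated peptide in Hepes pH 7.0 buffer. Phosphopeptide detected by HTRF (Tb anti-phosphotyrosine/streptavidin-XL665, 665/620 nm ratio); normalised to no-inhibitor and no-enzyme controls.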
A general note: TR-FRET usually uses a lanthanide donor and a delayed reading to cut background.

Each structure is given as a SMILES string. Values joined by “and” are separate entries in the source; they are usually repeats but may differ in a detail not shown here. Identical values can stand only once.

Chain of wild-type Epidermal Growth Factor Receptor (EGFR) (P00533 669-1210): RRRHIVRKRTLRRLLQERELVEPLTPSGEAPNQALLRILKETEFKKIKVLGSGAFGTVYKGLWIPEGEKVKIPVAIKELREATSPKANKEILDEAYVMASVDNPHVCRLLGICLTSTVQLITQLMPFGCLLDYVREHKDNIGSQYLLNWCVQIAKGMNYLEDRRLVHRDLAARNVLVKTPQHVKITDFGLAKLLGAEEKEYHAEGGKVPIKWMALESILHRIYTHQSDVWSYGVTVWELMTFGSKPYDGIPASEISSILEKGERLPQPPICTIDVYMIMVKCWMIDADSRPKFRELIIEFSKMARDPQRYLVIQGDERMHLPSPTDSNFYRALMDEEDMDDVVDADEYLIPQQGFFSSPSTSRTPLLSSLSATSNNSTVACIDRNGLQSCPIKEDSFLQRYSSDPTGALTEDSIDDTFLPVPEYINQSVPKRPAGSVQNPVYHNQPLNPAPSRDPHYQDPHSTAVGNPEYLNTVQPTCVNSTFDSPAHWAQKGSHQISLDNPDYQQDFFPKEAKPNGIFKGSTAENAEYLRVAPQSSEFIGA
Chain of human CSNK1A1 (P48729 whole entry): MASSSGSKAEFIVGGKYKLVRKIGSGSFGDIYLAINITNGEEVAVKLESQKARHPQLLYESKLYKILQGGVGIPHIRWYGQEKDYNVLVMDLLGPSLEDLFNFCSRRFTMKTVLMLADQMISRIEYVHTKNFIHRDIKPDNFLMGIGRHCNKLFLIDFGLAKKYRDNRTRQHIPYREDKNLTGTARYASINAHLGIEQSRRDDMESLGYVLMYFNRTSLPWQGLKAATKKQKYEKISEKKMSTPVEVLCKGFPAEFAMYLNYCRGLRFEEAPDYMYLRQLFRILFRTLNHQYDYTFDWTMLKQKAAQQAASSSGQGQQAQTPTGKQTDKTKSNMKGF

Take `CCC1CNC(=O)c2c1[nH]c(-c1ccnc(NC(=O)Cc3ccc(F)cc3)c1)c2Nc1ccccc1` (racemic) [Example 1, N-{4-[3-anilino-7-ethyl-4-oxo-4,5,6,7-tetrahydro-1H-pyrrolo[3,2-c]pyridin-2-yl]pyridin-2-yl}-2-(4-fluorophenyl)acetamide]: the IC50 on human CSNK1A1 was 1.5 nM; in experiment [1] it was 57 nM.
With `Cc1cn(C)c(=O)c2c(Nc3ccccc3)c(-c3ccnc(NC(=O)C(CC(F)F)c4ccc(F)cc4)c3)[nH]c12` (single isomer, unassigned) [Example 13, N-[4-(3-anilino-5,7-dimethyl-4-oxo-4,5-dihydro-1H-pyrrolo[3,2-c]pyridin-2-yl)pyridin-2-yl]-4,4-difluoro-2-(4-fluorophenyl)butanamide], the IC50 at human CSNK1A1 is 19 nM; in experiment [1], more than 20000 nM.
`CC1CN(C)C(=O)c2c1[nH]c(-c1ccnc(NC(=O)Cc3ccc(F)cc3)c1)c2Nc1ccccc1` (racemic) [Example 6, N-{4-[3-anilino-5,7-dimethyl-4-oxo-4,5,6,7-tetrahydro-1H-pyrrolo[3,2-c]pyridin-2-yl]pyridin-2-yl}-2-(4-fluorophenyl)acetamide]: the IC50 came out at 2.6 nM at human CSNK1A1 and 1400 nM in experiment [1].
Taken in the same sequence, the figures for `CN1CC(CC(F)F)c2[nH]c(-c3ccnc(NC(=O)Cc4ccc(F)cc4)c3)c(Nc3ccccc3)c2C1=O` (single isomer, unassigned) [Example 43, N-{4-[3-anilino-7-(2,2-difluoroethyl)-5-methyl-4-oxo-4,5,6,7-tetrahydro-1H-pyrrolo[3,2-c]pyridin-2-yl]pyridin-2-yl}-2-(4-fluorophenyl)acetamide] were 2.8 nM and 410 nM.
Take `Cn1cc(CC(F)F)c2[nH]c(-c3ccnc(NC(=O)Cc4ccc(F)cc4)c3)c(Nc3ccccc3)c2c1=O` [Example 45, N-{4-[3-anilino-7-(2,2-difluoroethyl)-5-methyl-4-oxo-4,5-dihydro-1H-pyrrolo[3,2-c]pyridin-2-yl]pyridin-2-yl}-2-(4-fluorophenyl)acetamide]: the results for the IC50 (at human CSNK1A1; in experiment [1]) were 5.7 nM and 150 nM, respectively.
For `CN1CC(CC(F)(F)F)c2[nH]c(-c3ccnc(NC(=O)C(CC(F)F)c4ccc(F)cc4)c3)c(Nc3cscn3)c2C1=O` (racemic) [Example 52, (2RS)-4,4-difluoro-2-(4-fluorophenyl)-N-{4-[(7RS)-5-methyl-4-oxo-3-[(1,3-thiazol-4-yl)amino]-7-(2,2,2-trifluoroethyl)-4,5,6,7-tetrahydro-1H-pyrrolo[3,2-c]pyridin-2-yl]pyridin-2-yl}butanamide], the IC50 at human CSNK1A1 was 7.9 nM; in experiment [1] it was more than 20000 nM.
On to `Cc1ccccc1Nc1c(-c2ccnc(NC(=O)Cc3ccc(F)cc3)c2)[nH]c2c(CC(F)(F)F)cn(C)c(=O)c12` [Example 33, 2-(4-fluorophenyl)-N-{4-[5-methyl-3-(2-methylanilino)-4-oxo-7-(2,2,2-trifluoroethyl)-4,5-dihydro-1H-pyrrolo[3,2-c]pyridin-2-yl]pyridin-2-yl}acetamide], for which the figures for the IC50 (on human CSNK1A1; in experiment [1]) were 8.6 nM and 7 nM, respectively.
For the compound `CN1CC(CC(F)(F)F)c2[nH]c(-c3ccnc(NC(=O)C(CC(F)F)c4ccc(F)cc4)c3)c(Nc3cscn3)c2C1=O` (single isomer, unassigned) [Example 55, (2R or S)-4,4-difluoro-2-(4-fluorophenyl)-N-{4-[(7R or S)-5-methyl-4-oxo-3-[(1,3-thiazol-4-yl)amino]-7-(2,2,2-trifluoroethyl)-4,5,6,7-tetrahydro-1H-pyrrolo[3,2-c]pyridin-2-yl]pyridin-2-yl}butanamide], the IC50 on human CSNK1A1 is 59 nM; in experiment [1], 10800 nM and 9470 nM.
On to `CN1CC(CC(F)F)c2[nH]c(-c3ccnc(NC(=O)Cc4ccc(F)cc4)c3)c(Nc3ccccc3)c2C1=O` (single isomer, unassigned) [Example 44, N-{4-[3-anilino-7-(2,2-difluoroethyl)-5-methyl-4-oxo-4,5,6,7-tetrahydro-1H-pyrrolo[3,2-c]pyridin-2-yl]pyridin-2-yl}-2-(4-fluorophenyl)acetamide], for which the IC50 at human CSNK1A1 was found to be 3.3 nM; in experiment [1], 490 nM.
For the compound `O=C1N[C@@H]2CCC[C@@H]2c2[nH]c(-c3ccnc(NC(=O)C(CC(F)F)c4ccc(F)cc4)c3)c(Nc3ccccc3)c21` (single isomer, unassigned; (+)) [Example 22, (+)-(2R or S)—N-{4-[cis-3-anilino-4-oxo-1,4,5,5a,6,7,8,8a-octahydrocyclopenta[b]pyrrolo[2,3-d]pyridin-2-yl]pyridin-2-yl}-4,4-difluoro-2-(4-fluorophenyl)butanamide], the IC50 on human CSNK1A1 was 5.4 nM; in experiment [1], more than 20000 nM.
For `Cn1cc(CC(F)(F)F)c2[nH]c(-c3ccnc(NC(=O)C(CC(F)F)c4ccc(F)cc4)c3)c(Nc3ccccc3)c2c1=O` (single isomer, unassigned) [Example 37, N-{4-[3-anilino-5-methyl-4-oxo-7-(2,2,2-trifluoroethyl)-4,5-dihydro-1H-pyrrolo[3,2-c]pyridin-2-yl]pyridin-2-yl}-4,4-difluoro-2-(4-fluorophenyl)butanamide] the same measures were 12 nM and 120 nM.

(Values after patent US20230365554A1, “SUBSTITUTED PYRROLO-PYRIDINONE DERIVATIVES AND THERAPEUTIC USES THEREOF” (The Broad Institute, Inc., priority 2020, published 2023).)
